According to US5840684A, “Glycopeptide antibiotic derivatives” (Eli Lilly and Company, priority 1995, dated 1998):
≈ marks a conversion by molar mass, not a printed value.

How the values were obtained:
Entercoccus faecium 180 = experiment: broth micro-dilution MIC; format: cell-based; conditions: Entercoccus faecium 180
Method: (§1) The formula I compounds have in vitro and in vivo activity against Gram-positive pathogenic bacteria. The MIC's were determined using a standard broth micro-dilution assay.

[1] = system: Streptococcus pneumoniae P1; experiment: broth micro-dilution MIC; format: cell-based
Method: as §1

[2] = system: Staphylococcus epidermidis 270; experiment: broth micro-dilution MIC; format: cell-based
Method: as §1

[3] = system: Enterococcus gallinarum 245; experiment: broth micro-dilution MIC; format: cell-based; conditions: Enterococcus gallinarum 245
Method: as §1

[4] = system: Staphylococcus haemolyticus 105; experiment: broth micro-dilution MIC; format: cell-based
Method: as §1

Entercoccus faecium 2041 = experiment: broth micro-dilution MIC; format: cell-based; conditions: Entercoccus faecium 2041
Method: as §1

[5] = system: Staphylococcus haemolyticus 415; experiment: broth micro-dilution MIC; format: cell-based
Method: as §1

[6] = system: Staphylococcus aureus SA1199B; format: cell-based
Method: (§2) The MIC's were determined using a standard broth micro-dilution assay.

[7] = system: Staphylococcus aureus S13E; format: cell-based
Method: as §2

[8] = system: Entercoccus faecium 180-1; experiment: broth micro-dilution MIC; format: cell-based
Method: as §2

[9] = system: Staphylococcus aureus 489; experiment: broth micro-dilution MIC; format: cell-based
Method: as §2

[10] = system: Staphylococcus aureus 446; experiment: broth micro-dilution MIC; format: cell-based
Method: as §2

Entercoccus faecium 276 = experiment: broth micro-dilution MIC; format: cell-based
Method: as §2

[11] = system: Staphylococcus aureus 447; experiment: broth micro-dilution MIC; format: cell-based
Method: as §2

[12] = system: Staphylococcus aureus 491; experiment: broth micro-dilution MIC; format: cell-based
Method: as §2

[13] = system: Staphylococcus aureus X400; experiment: broth micro-dilution MIC; format: cell-based
Method: as §2

[14] = system: Streptococcus pyogenes C203; experiment: broth micro-dilution MIC; format: cell-based
Method: as §2

[15] = system: Staphylococcus aureus SA1199; experiment: broth micro-dilution MIC; format: cell-based
Method: as §2

[16] = system: Staphylococcus aureus SA1199A; experiment: broth micro-dilution MIC; format: cell-based
Method: as §2

[17] = system: vancomycin-susceptible enterococci; experiment: broth micro-dilution, mean geometric MIC; format: cell-based, Enterococcus faecium and Enterococcus faecalis; conditions: enterococci, 24-hour incubation
[18] = system: vancomycin-resistant enterococci; experiment: broth micro-dilution, mean geometric MIC; format: cell-based, Enterococcus faecium and Enterococcus faecalis; conditions: enterococci, 24-hour incubation
[19] = system: Staphylococcus aureus X778; experiment: broth micro-dilution MIC; format: cell-based
Method: as §2

SMILES	MIC (Entercoccus faecium 180) [µg/mL]	MIC [1] [µg/mL]	MIC [2] [µg/mL]	MIC [3] [µg/mL]	MIC [4] [µg/mL]	MIC (Entercoccus faecium 2041) [µg/mL]	MIC [5] [µg/mL]	MIC [6] [µg/mL]	MIC [7] [µg/mL]	MIC [8] [µg/mL]	MIC [9] [µg/mL]	MIC [10] [µg/mL]	MIC (Entercoccus faecium 276) [µg/mL]	MIC [11] [µg/mL]	MIC [12] [µg/mL]	MIC [13] [µg/mL]	MIC [15] [µg/mL]	MIC [16] [µg/mL]	mean geometric MIC, Vancomycin Sensitive Strains [17] [µg/mL]	mean geometric MIC, Vancomycin Resistant Strains [18] [µg/mL]	further results
CNC(CC(C)C)C(=O)NC1C(=O)NC(CC(N)=O)C(=O)NC2C(=O)NC3C(=O)NC(C(=O)NC(C(=O)O)c4cc(O)cc(O)c4-c4cc3ccc4O)C(OC3CC(C)(N)C(O)C(C)O3)c3ccc(c(Cl)c3)Oc3cc2cc(c3OC2OC(CO)C(O)C(O)C2OC2CC(C)(NCc3ccc4ccc5cccc6ccc3c4c56)C(O)C(C)O2)Oc2ccc(cc2Cl)C1O (centres unmarked) [Compound 16]	1 (≈ 0.553 µM)	≤ 0.06	2 (≈ 1.11 µM)	1 (≈ 0.553 µM)	8 (≈ 4.43 µM)	0.5 (≈ 0.277 µM)	4 (≈ 2.21 µM)	1 (≈ 0.553 µM)	1 (≈ 0.553 µM)	0.125 (≈ 0.0692 µM)	0.5 (≈ 0.277 µM)	4 (≈ 2.21 µM)	2 (≈ 1.11 µM)	4 (≈ 2.21 µM)	1 (≈ 0.553 µM)	0.5 (≈ 0.277 µM)	2 (≈ 1.11 µM)	≤ 0.06	0.67		MIC [14]: ≤ 0.06 µg/mL
CNC(CC(C)C)C(=O)NC1C(=O)NC(CC(N)=O)C(=O)NC2C(=O)NC3C(=O)NC(C(=O)NC(C(=O)O)c4cc(O)cc(O)c4-c4cc3ccc4O)C(OC3CC(C)(N)C(O)C(C)O3)c3ccc(c(Cl)c3)Oc3cc2cc(c3OC2OC(CO)C(O)C(O)C2OC2CC(C)(NCc3ccc(Oc4ccccc4Cl)c([N+](=O)[O-])c3)C(O)C(C)O2)Oc2ccc(cc2Cl)C1O (centres unmarked) [Compound 88]	0.125 (≈ 0.0674 µM)	≤ 0.06	1 (≈ 0.539 µM)	≤ 0.06	1 (≈ 0.539 µM)	≤ 0.06	2 (≈ 1.08 µM)	1 (≈ 0.539 µM)	1 (≈ 0.539 µM)	≤ 0.06	0.5 (≈ 0.27 µM)		≤ 0.06		0.5 (≈ 0.27 µM)	≤ 0.06	1 (≈ 0.539 µM)	≤ 0.06	0.055	1.7	MIC [19]: 0.5 µg/mL (≈ 0.27 µM); MIC [14]: ≤ 0.06 µg/mL
CN[C@H](CC(C)C)C(=O)N[C@H]1C(=O)N[C@@H](CC(N)=O)C(=O)N[C@H]2C(=O)N[C@H]3C(=O)N[C@H](C(=O)N[C@H](C(=O)O)c4cc(O)cc(O)c4-c4cc3ccc4O)[C@H](O[C@H]3C[C@](C)(N)[C@@H](O)[C@H](C)O3)c3ccc(c(Cl)c3)Oc3cc2cc(c3O[C@@H]2O[C@H](CO)[C@@H](O)[C@H](O)[C@H]2O[C@H]2C[C@](C)(NCc3ccc(-c4cccc(F)c4)cc3)[C@@H](O)[C@H](C)O2)Oc2ccc(cc2Cl)[C@H]1O [Compound 92]	0.125 (≈ 0.0704 µM)	≤ 0.06	1 (≈ 0.563 µM)	2 (≈ 1.13 µM)	2 (≈ 1.13 µM)	0.125 (≈ 0.0704 µM)	2 (≈ 1.13 µM)	0.5 (≈ 0.281 µM)	0.125 (≈ 0.0704 µM)	≤ 0.06	≤ 0.06	2 (≈ 1.13 µM)	0.125 (≈ 0.0704 µM)	0.5 (≈ 0.281 µM)	1 (≈ 0.563 µM)	0.5 (≈ 0.281 µM)	1 (≈ 0.563 µM)	≤ 0.06	0.082	1.7	MIC [14]: ≤ 0.06 µg/mL
CNC(CC(C)C)C(=O)NC1C(=O)NC(CC(N)=O)C(=O)NC2C(=O)NC3C(=O)NC(C(=O)NC(C(=O)O)c4cc(O)cc(O)c4-c4cc3ccc4O)C(OC3CC(C)(N)C(O)C(C)O3)c3ccc(c(Cl)c3)Oc3cc2cc(c3OC2OC(CO)C(O)C(O)C2OC2CC(C)(NCc3ccc(-c4ccccc4)cc3F)C(O)C(C)O2)Oc2ccc(cc2Cl)C1O (centres unmarked) [Compound 206]	≤ 0.06	≤ 0.06	0.25 (≈ 0.141 µM)	1 (≈ 0.563 µM)	0.5 (≈ 0.281 µM)	0.25 (≈ 0.141 µM)	1 (≈ 0.563 µM)	1 (≈ 0.563 µM)	1 (≈ 0.563 µM)	≤ 0.06	1 (≈ 0.563 µM)	0.5 (≈ 0.281 µM)	≤ 0.06	0.5 (≈ 0.281 µM)	≤ 0.06	0.5 (≈ 0.281 µM)	0.5 (≈ 0.281 µM)	≤ 0.06	0.095	1.7	MIC [19]: 0.5 µg/mL (≈ 0.281 µM)
CNC(CC(C)C)C(=O)NC1C(=O)NC(CC(N)=O)C(=O)NC2C(=O)NC3C(=O)NC(C(=O)NC(C(=O)O)c4cc(O)cc(O)c4-c4cc3ccc4O)C(OC3CC(C)(N)C(O)C(C)O3)c3ccc(c(Cl)c3)Oc3cc2cc(c3OC2OC(CO)C(O)C(O)C2OC2CC(C)(NCc3ccc(-c4ccc([N+](=O)[O-])cc4)c([N+](=O)[O-])c3)C(O)C(C)O2)Oc2ccc(cc2Cl)C1O (centres unmarked) [Compound 212]	≤ 0.06	≤ 0.06	≤ 0.06	1 (≈ 0.541 µM)	1 (≈ 0.541 µM)	≤ 0.06	1 (≈ 0.541 µM)	≤ 0.06	≤ 0.06	≤ 0.06	≤ 0.06	≤ 0.06	≤ 0.06		≤ 0.06	≤ 0.06	≤ 0.06	≤ 0.06	0.036	0.50	MIC [19]: ≤ 0.06 µg/mL
CNC(CC(C)C)C(=O)NC1C(=O)NC(CC(N)=O)C(=O)NC2C(=O)NC3C(=O)NC(C(=O)NC(C(=O)O)c4cc(O)cc(O)c4-c4cc3ccc4O)C(OC3CC(C)(N)C(O)C(C)O3)c3ccc(c(Cl)c3)Oc3cc2cc(c3OC2OC(CO)C(O)C(O)C2OC2CC(C)(NCCCCCCCCCCCCc3ccccc3)C(O)C(C)O2)Oc2ccc(cc2Cl)C1O (centres unmarked) [Compound 234]	1 (≈ 0.544 µM)		4 (≈ 2.18 µM)	16 (≈ 8.71 µM)	8 (≈ 4.36 µM)	0.5 (≈ 0.272 µM)	16 (≈ 8.71 µM)	8 (≈ 4.36 µM)	8 (≈ 4.36 µM)	1 (≈ 0.544 µM)	4 (≈ 2.18 µM)	4 (≈ 2.18 µM)	4 (≈ 2.18 µM)	8 (≈ 4.36 µM)	8 (≈ 4.36 µM)	8 (≈ 4.36 µM)	8 (≈ 4.36 µM)	2 (≈ 1.09 µM)	2	2	MIC [19]: 4 µg/mL (≈ 2.18 µM)
